Columns and labels:
[1] = tested on: Gaeumannomyces graminis; test: Gaeumannomyces graminis / liquid culture (take-all of cereals); type: cell-based; conditions: 96 h, liquid culture (PDB), inhibition of growth photometrically 4-5 days after application, read-out: disease control
Procedure: (§1) Fungicidal Activity Against Gaeumannomyces graminis/Liquid Culture (Take-all of Cereals) Mycelial fragments of the fungus from cryogenic storage were directly mixed into nutrient broth (PDB potato dextrose broth). After placing a (DMSO) solution of test compound into a microtiter plate (96-well format), the nutrient broth containing the fungal spores is added. The test plates were incubated at 24° C. and the inhibition of growth was determined photometrically 4-5 days after application.

[2] = tested on: Blumeria graminis f. Sp. Tritici (Erysiphe graminis f. Sp. Tritici); test: Blumeria graminis f. sp. tritici / wheat / leaf disc preventative (powdery mildew on wheat); type: in vivo; conditions: foliar, wheat leaf disc cv. Kanzler, inoculated 1 day after application, assessed 6-8 days after application, read-out: disease control
Procedure: Fungicidal Activity Against Blumeria graminis f. Sp. Tritici (Erysiphe graminis f. Sp. Tritici)/Wheat/Leaf Disc Preventative (Powdery Mildew on Wheat)
Wheat leaf segments cv. Kanzler were placed on agar in a multiwell plate (24-well format) and sprayed with the formulated test compound diluted in water. The leaf disks were inoculated by shaking powdery mildew infected plants above the test plates 1 day after application. The inoculated leaf disks were incubated at 20° C. and 60% rh under a light regime of 24 h darkness followed by 12 h light/12 h darkness in a climate chamber and the activity of a compound was assessed as percent disease control compared to untreated when an appropriate level of disease damage appears on untreated check leaf segments (6-8 days after application).

[3] = tested on: Botryotinia fuckeliana (Botrytis cinerea); test: Botryotinia fuckeliana (Botrytis cinerea) / liquid culture (gray mould); type: cell-based; conditions: 72 h, liquid culture (Vogels broth), inhibition of growth photometrically 3-4 days after application, read-out: disease control
Procedure: as §1, with “Botryotinia fuckeliana (Botrytis cinerea)/Liquid” for “Gaeumannomyces graminis/Liquid”, “(Gray Mould) Conidia” for “(Take-all of Cereals) Mycelial fragments”, “(Vogels” for “(PDB potato dextrose”, “was” for “is”, “3-4” for “4-5”

[4] = tested on: Fusarium culmorum; test: Fusarium culmorum / liquid culture (root rot); type: cell-based; conditions: liquid culture (PDB), inhibition of growth photometrically after 48 hrs, read-out: disease control
Procedure: Fungicidal Activity Against Fusarium culmorum/Liquid Culture (Root Rot)
Conidia of the fungus from cryogenic storage were directly mixed into nutrient broth (PDB potato dextrose broth). After placing a (DMSO) solution of the test compounds into a microtiter plate (96-well format) the nutrient broth containing the fungal spores was added. The test plates were incubated at 24 C and the inhibition of growth was determined photometrically after 48 hrs.

[5] = tested on: Mycosphaerella graminicola (Septoria tritici); test: Mycosphaerella graminicola (Septoria tritici) / liquid culture (Septoria blotch); type: cell-based; conditions: Zymoseptoria tritici, 96 h, liquid culture (PDB), inhibition of growth photometrically 4-5 days after application, read-out: disease control
Procedure: as §1, with “Mycosphaerella graminicola (Septoria tritici)/Liquid” for “Gaeumannomyces graminis/Liquid”, “(Septoria Blotch) Conidia” for “(Take-all of Cereals) Mycelial fragments”, “was” for “is”

[6] = tested on: Puccinia recondita f. Sp. Tritici; test: Puccinia recondita f. sp. tritici / wheat / leaf disc curative (brown rust); type: in vivo; conditions: foliar, 192 h, applied one day after inoculation, assessed 8 dpi, read-out: disease control
Procedure: Fungicidal Activity Against Puccinia recondita f. Sp. Tritici/Wheat/Leaf Disc Curative (Brown Rust) Wheat leaf segments are placed on agar in multiwell plates (24-well format). The leaf disks are then inoculated with a spore suspension of the fungus. One day after inoculation the test solution is applied. After appropriate incubation the activity of a compound is assessed 8 dpi (days after inoculation) as curative fungicidal activity. Dose range: 200-22 ppm.

[7] = tested on: Mycosphaerella arachidis (Cercospora arachidicola); test: Mycosphaerella arachidis (Cercospora arachidicola) / liquid culture (early leaf spot); type: cell-based; conditions: 96 h, liquid culture (PDB), inhibition of growth photometrically 4-5 days after application, read-out: disease control
Procedure: as §1, with “Mycosphaerella arachidis (Cercospora arachidicola)/Liquid” for “Gaeumannomyces graminis/Liquid”, “(Early Leaf Spot) Conidia” for “(Take-all of Cereals) Mycelial fragments”, “was” for “is”

[8] = tested on: Puccinia recondite f. Sp. Tritici; test: Puccinia recondita f. sp. tritici / wheat / leaf disc preventative (brown rust); type: in vivo; conditions: foliar, wheat leaf disc cv. Kanzler, inoculated 1 day after application, assessed 7-9 days after application, read-out: disease control
Procedure: Fungicidal Activity Against Puccinia recondite f. Sp. Tritici/Wheat/Leaf Disc Preventative (Brown Rust) Wheat leaf segments cv. Kanzler were placed on agar in multiwell plates (24-well format) and sprayed with the formulated test compound diluted in water. The leaf disks were inoculated with a spore suspension of the fungus 1 day after application. The inoculated leaf segments were incubated at 19° C. and 75% rh under a light regime of 12 h light/12 h darkness in a climate cabinet and the activity of a compound was assessed as percent disease control compared to untreated when an appropriate level of disease damage appears in untreated check leaf segments (7-9 days after application).

SMILES	inhibition of growth at 200 ppm [1] [%]	pest or weed control at 200 ppm [2] [%]	inhibition of growth at 200 ppm [3] [%]	inhibition of growth at 200 ppm [4] [%]	inhibition of growth at 200 ppm [5] [%]	pest or weed control at 200 ppm [6] [%]	inhibition of growth at 200 ppm [7] [%]	pest or weed control at 200 ppm [8] [%]	melting point [°C]
N#CC(Cc1cccnc1)c1ccc(C#CC2CC2)cc1 (centres unmarked) [Compound 1]	≥ 80	≥ 80	≥ 80	≥ 80	≥ 80	≥ 80	≥ 80		
N#CC(Cc1cncnc1)c1ccc(C#CC2CC2)cc1 (centres unmarked) [Compound 2]	≥ 80	≥ 80		≥ 80	≥ 80	≥ 80	≥ 80	≥ 80	
Cc1cncc(CC(C#N)c2ccc(C#CC3CC3)cc2)c1 (centres unmarked) [Compound 3]	≥ 80	≥ 80	≥ 80	≥ 80	≥ 80		≥ 80		
OC(Cn1ccnc1)c1ccc(C#CC2CC2)cc1Cl (centres unmarked) [Compound 5]		≥ 80	≥ 80			≥ 80	≥ 80	≥ 80	
OC(Cn1ccnc1)(c1ccc(C#CC2CC2)cc1)C(F)(F)c1ccccn1 (centres unmarked) [Compound 6]	≥ 80	≥ 80	≥ 80		≥ 80	≥ 80	≥ 80	≥ 80	
OC(Cn1cncn1)(c1ccc(C#CC2CC2)cc1)C(F)(F)c1ccccn1 (centres unmarked) [Compound 7]	≥ 80	≥ 80	≥ 80	≥ 80	≥ 80	≥ 80	≥ 80	≥ 80	
N#CC(Cc1cccnc1)c1ccc(C#CC2CC2)cc1F (centres unmarked) [Compound 10]	≥ 80	≥ 80	≥ 80	≥ 80	≥ 80	≥ 80	≥ 80	≥ 80	
CC(C)C#Cc1ccc(C(O)(Cn2cncn2)C(F)(F)c2ccc(Cl)cn2)cc1 (centres unmarked) [Compound 11]	≥ 80	≥ 80	≥ 80	≥ 80	≥ 80	≥ 80	≥ 80	≥ 80	128 to 132
CCCC#Cc1ccc(C(O)(Cn2cncn2)C(F)(F)c2ccc(Cl)cn2)cc1 (centres unmarked) [Compound 12]	≥ 80	≥ 80	≥ 80	≥ 80	≥ 80	≥ 80	≥ 80	≥ 80	124 to 128
OC(Cn1cncn1)(c1ccc(C#CC2CC2)cc1)C(F)(F)c1ccc(Cl)cn1 (centres unmarked) [Compound 13]		≥ 80	≥ 80	≥ 80	≥ 80	≥ 80	≥ 80	≥ 80	88 to 94

Reference: patent publication US9695123B2, “Microbiocides” (Syngenta Participations AG, priority 2013, dated 2017)
